Assays:
[1] = system: transplanted tumor of human large cell lung cancer H460 cells; experiment: Human large cell lung cancer (H460) in nude mice model; conditions: 30 mg/kg i.g. 30 d
Method: (§1) Then cell concentration was adjusted to 1×10^7/ml with matrigel, and then each nude mouse was inoculated subcutaneously with 0.2 ml of cells at its right armpit and recorded as the first day of inoculation. […] Each group was continuously administered intragastrically for 30 days with a dose of 20 ml/kg. The mice were sacrificed the next day after drug withdrawal and the indicators were tested. The long diameter and short diameter of the tumor, and the body weight of each mouse were recorded every 3 days from drug administration to nude mouse sacrifice.
(§2) The body weight of the nude mice and the long diameter (a) and short diameter (b) of the transplanted tumor were measured every 3 days, and the tumor volume (v), relative tumor volume (RTV) and relative tumor proliferation rate (T/C) are calculated respectively according to the following formulas, wherein V=a×b^2/2; RTV=V/V0 (V0 is the tumor volume before administration, V is the tumor volume before sacrifice), and T/C (%)=treatment group RTV/model control group RTV×100%.
(§3) Each mouse was weighed and sacrificed. After the tumor was completely stripped off from the body of the mouse, the non-tumor tissues such as blood stains and fat were removed to weigh the tumor and calculate the tumor growth inhibition rate. The average tumor weight of each group of mice is used as an indicator of efficacy. Tumor growth inhibition rate (%)=(1−the average tumor weight of the treatment group/the average tumor weight of the model group)×100%.

[2] = system: transplanted tumor of human cervical cancer HeLa cells; experiment: Human cervical cancer in nude mice model; conditions: 30 mg/kg i.g. 30 d
Method: as §1, with “Then the cells were subjected to trypsinization, centrifugation, and supernatant removal. Then” for “Then”, “matrigel,” for “matrigel, and”
as §2
as §3, with “Calculation of Tumor Growth Inhibition Rate Each” for “Each”

[3] = system: transplanted tumor of human leukemia HL-60 cells; experiment: Human leukemia in nude mice model; conditions: HL-60 nude mice; 30 mg/kg i.g. 30 d
Method: as §1, with “HL-60 cells in a logarithmic growth phase were taken and subjected to a trypan blue exclusion experiment showing that the cell viability was more than 95%, then the cells were subjected to trypsinization, centrifugation, and supernatant removal. Then” for “Then”
as §2, §3

[4] = system: thymus and spleen of Lewis lung cancer tumor-bearing mice; experiment: Thymus index and spleen index of Lewis lung cancer tumor-bearing mice; type: in vivo, C57BL/6 mouse
Method: (§4) After the tumor-bearing mice are sacrificed, the spleen and thymus are weighed, and the spleen index and thymus index are calculated.

[5] = system: NK cell activity of spleen cells against K562 cells; experiment: Natural killer (NK) cell activity of Lewis lung cancer tumor-bearing mice; type: in vivo, C57BL/6 mouse
Method: The serum-free RPMI 1640 medium was placed in a dish, and then the dish was placed on ice. The spleen was aseptically taken and gently ground with a sterile glass slide to prepare a single cell suspension. The single cell suspension was filtered with a double-layer sterile gauze, washed twice with serum-free RPMI 1640 medium, and centrifuged at 1,500 rpm for 5 min to remove the obtained supernatant. 2 mL of red blood cell lysate was added to the treated suspension, the mixture was allowed to stand for 2 min, and then 8 mL of RPMI 1640 medium was added, centrifuging was performed at 1,500 rpm for 5 min to remove the obtained supernatant, and then washing was performed twice with the RPMI 1640 medium. Trypan blue staining was performed to count the number of live cells, and the cell viability was more than 95%. […]
The spleen cell suspension was taken, and the cell density was adjusted to 1×10^7/mL (effector cells). […] Each mouse was set with: A. effector cells:target cell well (quantity ratio 20:1) to which 20 μL of spleen cell suspension and 100 μL of K562 cell suspension were added; B. an effector cell control well, to which 100 μL of spleen cell suspension and 100 μL of RPMI 1640 medium were added; and C. a target cell control well, to which 100 μL of K562 cell suspension and 100 μL of RPMI 1640 medium were added. […]

[6] = system: thymus and spleen of H22 liver cancer tumor-bearing mice; type: in vivo
Method: as §4

[7] = system: spleen of A549 lung cancer tumor-bearing mice; type: in vivo
Method: as §4

[8] = 26 mg/kg, positive drug group, n = 6
[9] = H22 tumor-bearing mice, cyclophosphamide, P<0.01

O=P1(N(CCCl)CCCl)NCCCO1 (stereo not shown) [Cyclophosphamide]
Body Weight (g)(d1) [1]: 20.32 ± 0.87 g | Body Weight (g)(d30) [1]: 19.25 ± 0.83 g | Inhibition Rate (%) [1]: 68.49% | Relative Tumor Proliferation Rate(T/C) [1]: 36.37% | Relative Tumor Volume (RTV) [1]: 7.66 ± 1.26 | Tumor Volume (mm3) (d1) [1]: 130.82 ± 2.38 mm3 | Tumor Volume (mm3) (d30) [1]: 1002.08 ± 48.82 mm3 | Tumor Weight [1]: 0.61 ± 0.13 g | Body Weight (g)(d1) [2]: 20.04 ± 0.68 g | Body Weight (g)(d30) [2]: 19.20 ± 0.18 g | Inhibition Rate (%) [2]: 72.48% | Relative Tumor Proliferation Rate(T/C) [2]: 24.35% | Relative Tumor Volume (RTV) [2]: 3.44 ± 0.93 | Tumor Volume (mm3) (d30) [2]: 397.88 ± 103.60 mm3 | Tumor Weight [2]: 0.49 ± 0.39 g | Body Weight (g)(d1) [3]: 22.66 ± 1.11 g | Body Weight (g)(d30) [3]: 20.52 ± 1.73 g | Inhibition Rate (%) [3]: 81.37% | Relative Tumor Proliferation Rate(T/C) [3]: 58.63% | Relative Tumor Volume (RTV) [3]: 6.76 ± 2.53 | Tumor Volume (mm3) (d1) [3]: 209.22 ± 50.12 mm3 | Tumor Volume (mm3) (d30) [3]: 1415.16 ± 320.21 mm3 | Tumor Weight [3]: 1.46 ± 0.24 g | Spleen Index (%) [4, 8]: 0.41 ± 0.12 % | Thymus Index (%) [4, 8]: 0.12 ± 0.09% | spleen index compared with the control group ([4]; Lewis lung cancer tumor-bearing mice, cyclophosphamide, P<0.01): significantly lower | NK Cell Activity (%) ([5]; 26 mg/kg, n = 6): 25.4 ± 6.6 % | NK cell activity compared with the control group ([5]; cyclophosphamide, P<0.05): significantly lower | Spleen Index (%) ([6]; 26 mg/kg, positive drug group): 0.38 ± 0.09 % | Thymus Index (%) ([6]; 26 mg/kg, positive drug group): 0.04 ± 0.02 % | spleen index compared with the control group [6, 9]: significantly lower | thymus index compared with the control group [6, 9]: significantly lower | Spleen Index (%) [7, 8]: 0.20 ± 0.03 % | spleen index compared with the control group ([7]; A549 lung cancer tumor-bearing mice, cyclophosphamide, P<0.01): significantly lower
